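Where inhibition never reached the appropriate level, the endpoint shown equals the highest concentration tested. Otherwise, values were interpolated linearly from a five-concentration, 48-hour dose response in 96-well plates. The concentration for 50% growth inhibition is given as GI50.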 Calls of active or inactive are those of the source. No stated cut-off is given here; in the data, active = GI50 up to about 1.1 µM and inactive = higher.
Key:
Experiment in all cases: DTP human tumour cell line panel, 48 h
MDA-MB-231 = system: MDA-MB-231
OVCAR-3 = system: OVCAR-3
A498 = system: A498
PC-3 = system: PC-3
SR = system: SR
CAKI-1 = system: CAKI-1
RXF 393 = system: RXF 393
K562 = system: K562
SNB-19 = system: SNB-19
U-251 = system: U-251
HOP-92 = system: HOP-92
DU-145 = system: DU-145
COLO 205 = system: COLO 205
NCI-H226 = system: NCI-H226
SK-MEL-5 = system: SK-MEL-5
IGROV-1 = system: IGROV-1
KM12 = system: KM12
SF-295 = system: SF-295
HOP-62 = system: HOP-62
MDA-N = system: MDA-N

Row | SMILES | GI50 (MDA-MB-231) | GI50 (OVCAR-3) | GI50 (A498) | GI50 (PC-3) | GI50 (SR) | GI50 (CAKI-1) | GI50 (RXF 393) | GI50 (K562) | GI50 (SNB-19) | GI50 (U-251) | GI50 (HOP-92) | GI50 (DU-145) | GI50 (COLO 205) | GI50 (NCI-H226) | GI50 (SK-MEL-5) | GI50 (IGROV-1) | GI50 (KM12) | GI50 (SF-295) | GI50 (HOP-62) | GI50 (MDA-N)
1 | O=c1cc(/C=C/c2ccc(O)c(O)c2)oc(/C=C/c2ccc(O)c(O)c2)c1 | 4.44 µM (inactive) | 3.19 µM (inactive) | 3.84 µM (inactive) | 5.73 µM (inactive) | 1.07 µM (active) | 3.37 µM (inactive) | 2.72 µM (inactive) | 2.11 µM (inactive) | 3.82 µM (inactive) | 2.74 µM (inactive) | 2.48 µM (inactive) | 4.55 µM (inactive) | 8.2 µM (inactive) | 5.16 µM (inactive) | 3.19 µM (inactive) | 4.17 µM (inactive) | 4.37 µM (inactive) | 9.06 µM (inactive) | 7.53 µM (inactive) | 2.24 µM (inactive)
2 | C=C(C)[C@H]1C=C[C@@H](OC(=O)c2cccnc2)[C@@]23CO[C@@](C)([C@H](OC(=O)c4cccnc4)[C@@]4(OC(C)=O)C[C@H](C)[C@H](OCCC)[C@@H]4[C@H]2OC(C)=O)[C@H]13 | > 15 µM (inactive) | > 15 µM (inactive) | > 15 µM (inactive) | 7.74 µM (inactive) | 11.9 µM (inactive) | > 15 µM (inactive) | > 15 µM (inactive) | 7.73 µM (inactive) | > 15 µM (inactive) | > 15 µM (inactive) | > 15 µM (inactive) | > 15 µM (inactive) | 8.09 µM (inactive) | > 15 µM (inactive) | > 15 µM (inactive) | > 15 µM (inactive) | > 15 µM (inactive) | 13.4 µM (inactive) | 10.9 µM (inactive) | 10.7 µM (inactive)
3 | C=CC(=O)c1ccc2c(c1)OCCOCCOCCOCCOCCO2 | 21.3 µM (inactive) | 19.7 µM (inactive) | > 100 µM (inactive) | 30.9 µM (inactive) | > 100 µM (inactive) | 34.4 µM (inactive) | 17.2 µM (inactive) | 35.6 µM (inactive) | > 100 µM (inactive) | > 57.5 µM (inactive) | 17 µM (inactive) | > 100 µM (inactive) | 17.7 µM (inactive) | > 100 µM (inactive) | 58.7 µM (inactive) | > 100 µM (inactive) | > 100 µM (inactive) | > 100 µM (inactive) | > 100 µM (inactive) | 39.2 µM (inactive)
4 | N=C(N)N/N=C/c1c(-c2ccc(N)cc2)nc2sccn12 | 21 µM (inactive) | 21.8 µM (inactive) | 25.9 µM (inactive) | 22.5 µM (inactive) | 33.7 µM (inactive) | 33.7 µM (inactive) | 18.2 µM (inactive) | 26.1 µM (inactive) | 23.2 µM (inactive) | 25.4 µM (inactive) | > 100 µM (inactive) | 17.5 µM (inactive) | 23.4 µM (inactive) | > 100 µM (inactive) | > 100 µM (inactive) | 60.8 µM (inactive) | 21.2 µM (inactive) | 23.4 µM (inactive) | 26.5 µM (inactive) | 24.5 µM (inactive)
5 | O=C1OCOC2(CCCC2)C1c1ccccc1 (stereo not given) | > 100 µM (inactive) | > 100 µM (inactive) | > 100 µM (inactive) | > 100 µM (inactive) | > 100 µM (inactive) | > 100 µM (inactive) | > 100 µM (inactive) | > 100 µM (inactive) | > 100 µM (inactive) | > 100 µM (inactive) | > 100 µM (inactive) | > 100 µM (inactive) | > 100 µM (inactive) | > 100 µM (inactive) | > 100 µM (inactive) | > 100 µM (inactive) | > 100 µM (inactive) | > 100 µM (inactive) | > 100 µM (inactive) | > 100 µM (inactive)
6 | CCCCC(=O)OC[n+]1ccc2c(C)c3[nH]c4ccc(OC)cc4c3c(C)c2c1 | 0.185 µM (active) | 0.76 µM (active) | 0.923 µM (active) | 0.308 µM (active) | 0.0506 µM (active) | 1.02 µM (active) | 0.929 µM (active) | 0.0702 µM (active) | 0.364 µM (active) | 0.348 µM (active) | 1.23 µM (inactive) | 0.76 µM (active) | 0.267 µM (active) | 0.562 µM (active) | 1.22 µM (inactive) | 0.284 µM (active) | 0.412 µM (active) | 0.356 µM (active) | 0.47 µM (active) | 0.321 µM (active)
7 | O=Cc1ccc(-c2nccc3c2[nH]c2ccccc23)o1 | > 85.1 µM (inactive) | > 75.7 µM (inactive) | 0.585 µM (active) | 98.2 µM (inactive) | > 100 µM (inactive) | 4.91 µM (inactive) | 22.2 µM (inactive) | > 100 µM (inactive) | > 100 µM (inactive) | 68.9 µM (inactive) | 44.6 µM (inactive) | > 100 µM (inactive) | > 100 µM (inactive) | 1.31 µM (inactive) | 82.2 µM (inactive) | > 73.3 µM (inactive) | > 100 µM (inactive) | 20.4 µM (inactive) | 42.8 µM (inactive) | > 100 µM (inactive)
8 | CC(=O)NC1C(OCc2ccccc2)OC(CO)C(O)C1OC(C)C(=O)NC(C)C(=O)NC(CCC(=O)NCCCCNc1c2ccccc2nc2cccc([N+](=O)[O-])c12)C(N)=O (stereo not given) | 0.0237 µM (active) | 0.139 µM (active) | 0.131 µM (active) | 0.0989 µM (active) | 0.00796 µM (active) | 0.0325 µM (active) | 0.0199 µM (active) | 0.0106 µM (active) | 0.021 µM (active) | 0.042 µM (active) | 0.0176 µM (active) | 0.00887 µM (active) | 0.0327 µM (active) | 0.0962 µM (active) | 0.0356 µM (active) | 0.24 µM (active) | 0.0482 µM (active) | 0.196 µM (active) | 0.0791 µM (active) | 0.0232 µM (active)
9 | C=CC(C)(C)n1cc(C2=C(O)C(=O)C(c3cn(C(C)(C)C=C)c4ccccc34)=C(OC(C)=O)C2=O)c2ccccc21 | 1.3 µM (inactive) | 1.04 µM (active) | 0.853 µM (active) | 0.75 µM (active) | 0.298 µM (active) | 1.08 µM (active) | 0.929 µM (active) | 0.424 µM (active) | 1.04 µM (active) | 0.426 µM (active) | 0.598 µM (active) | 1.04 µM (active) | 1.67 µM (inactive) | 1.36 µM (inactive) | 0.64 µM (active) | 0.435 µM (active) | 0.565 µM (active) | 0.571 µM (active) | 0.628 µM (active) | 0.662 µM (active)
10 | Cc1ccc(-c2ccc3c(c2)Sc2ccccc2O3)n1C | 1.19 µM (inactive) | 0.373 µM (active) | 0.416 µM (active) | 0.348 µM (active) | 0.0675 µM (active) | 0.303 µM (active) | 0.283 µM (active) | 0.137 µM (active) | 0.607 µM (active) | 0.329 µM (active) | 19.8 µM (inactive) | 1.13 µM (inactive) | 0.232 µM (active) | 19.9 µM (inactive) | 0.356 µM (active) | 0.232 µM (active) | 0.257 µM (active) | 0.165 µM (active) | 0.614 µM (active) | 0.0285 µM (active)

Source: ChEMBL document CHEMBL1201862, “PubChem BioAssay data set” (2004)
